Literature values in US20250032638A1, “Novel Cancer Treatments with TLR7/8 Agonists” (Ascendis Pharma Oncology Division A/S, priority 2021, published 2025).

Settings: resiquimod administered orally; systemic toxicity at higher doses (Journal of Hepatology 47 (2007) 174-182)

CCOCc1nc2c(N)nc3ccccc3c2n1CC(C)(C)O [resiquimod]
systemic concentration that was well tolerated: about 4 ng/mL
